From publication PMC6582486, “Stapled EGFR peptide reduces inflammatory breast cancer and inhibits additional HER-driven models of cancer” (Journal of Translational Medicine, 2019) come the findings set out here.

The cell viability is a per cent measure of how many cells are alive, often set against a control. A high value points to less harm to the cells.

Where a SMILES comes first, the peptide text is derived from it. Bridges are numbered along the chain shown (N, C = ends). [ ]: non-standard residue; d: D form. R8 = C=CCCCCCC[C@@](C)(N)C(=O)O; S5 = C=CCCC[C@](C)(N)C(=O)O

The subject of data set [1] is grade 3 invasive ductal breast carcinoma PDX TM01278. Description: Breast cancer PDX mouse model TM01278. The format is in vivo. The text has this: The following PDX mouse models were generated by Jackson Labs (Sacramento, CA): Breast TM01278; Grade 3 invasive ductal carcinoma, primary malignancy; EGFR inactivating R521K mutation; ERBB3 G1288A mutation in kinase domain with unknown effects on activity; increased EGFR/ERBB2/ERBB3. Lung TM00784; Grade 3 lung adenocarcinoma, primary malignancy; EGFR activating L858R mutation; increased EGFR, decreased ERBB2/ERBB3/ERBB4. All animals were maintained as outlined by University of Arizona Institutional Animal Care and Use Committee (IACUC) by the Experimental Mouse Shared Resource (EMSR).
Fig. 4 SAH5-EJ1 effectively treats models of basal and inflammatory breast cancers while increasing survival. a Changes in tumor burden in breast cancer PDX mouse model TM01278 with various concentrations of intravenous SAH5-EJ1. Control represents water as a vehicle control. *p < 0.05 (Control vs 1 µg/g); **p < 0.01 (Control vs 1 µg/g and vs 10 µg/g). N = 6 for each condition. b Kaplan–Meier curve of breast PDX mouse model treated with control (blue) or either 1 or 10 µg/g SAH5-EJ1 (green and red, respectively) (red asterisks indicate time point at which mice could no longer receive injections due to site toxicity). Data shown represent mean. N = 6 for all groups. c Cell viability assay performed in SUM149 cells over 3 days comparing treatment with Sapitinib (blue) to SAH5-EJ1 (red) and SAH5-CP (grey). […]

The next data set deals with CHO cells. In words: Cell viability assay (MTT), CHO. The format is cell-based, Chinese Hamster. The note with it: 5 µM (Fig. 1h). An excerpt: Fig. 1 Hydrocarbon stapling leads to increased EJ1 activity in comparison to HER-directed monoclonal therapies. a EJ1 sequence with PTD4 domain (underlined) corresponding to EGFR juxtamembrane domain sequence 643–663. Stabilized alpha helix (SAH) variations 1–5 beneath, with asterisks (*) indicating sites of staple. Control peptide (CP) with altered residues indicated by double underline. Stapled control (5) asterisks (*) indicate sites of staple. b Cartoon representation of EJ1 structure, with staple variation 5 highlighted. Positively charged residues indicated in blue, negatively charged residues in red. c Cartoon representation of CP structure, with staple variation highlighted. d Cell viability assay performed in MDA-MB-468 cells after 24 h comparing unstapled EJ1 versus staple variations SAH1, SAH4, and SAH5, with increasing concentrations. e Visualization of MDA-MB-468 cells untreated, treated with 10 µM EJ1, and 10 µM SAH5-EJ1 after 60 min. Scale bars represent 50 µm. f–h Cell viability assay performed in MDA-MB-468, MCF10A, or CHO cells over 3 days comparing treatment with Sapitinib (blue lines), SAH5-EJ1 (red lines), and SAH5-CP (grey lines). […] Absorbance was read at 540 nm by plate reader (uQuant, Bio-Tek Instruments). P-values were calculated from a one-way ANOVA.

Take `CC[C@H](C)[C@H](NC(=O)[C@H](Cc1c[nH]cn1)NC(=O)[C@H](CCCNC(=N)N)NC(=O)[C@H](CCCNC(=N)N)NC(=O)[C@H](CCCNC(=N)N)NC(=O)[C@H](CCSC)NC(=O)[C@H](Cc1ccccc1)NC(=O)[C@H](C)NC(=O)[C@H](CCCNC(=N)N)NC(=O)[C@H](C)NC(=O)[C@H](CCC(N)=O)NC(=O)[C@H](CCCNC(=N)N)NC(=O)[C@H](C)NC(=O)[C@H](C)NC(=O)[C@H](C)NC(=O)[C@H](CCCNC(=N)N)NC(=O)[C@H](C)NC(=O)[C@@H](N)Cc1ccc(O)cc1)C(=O)N[C@H](C(=O)N[C@@H](CCCNC(=N)N)C(=O)N[C@@H](CCCCN)C(=O)N[C@@H](CCCNC(=N)N)C(=O)N[C@]1(C)CCCCCCC=CCCC[C@@](C)(C(=O)N[C@@H](CCCNC(=N)N)C(=O)N[C@@H](CCC(=O)O)C(N)=O)NC(=O)[C@H](CCC(N)=O)NC(=O)[C@H](CC(C)C)NC(=O)[C@H](CC(C)C)NC(=O)[C@H](CCCNC(=N)N)NC(=O)[C@H](CCCNC(=N)N)NC(=O)[C@H](CC(C)C)NC1=O)C(C)C` [SAH5-EJ1] (H-YARAAARQARAFMRRRHIVRKR[R8]LRRLLQ[S5]RE-NH2; staple 23-30): the increase in survival in data set [1] (1 µg/g IV vs control, N = 6) was 2.5 fold. The “time on study at which all remaining mice were sacrificed due to toxicity at the injection site” value in data set [1] (10 µg/g IV) is given as 41 days. Also, the cell viability with CHO cells is listed as 67%.
